Measurements published in patent US12240921B2, “Peptides” (priority 2022, dated 2025).
Starred links: 1 amine or outer side, 2 acyl side, 3 side chain; linkers in the order of their positions; H or OH if unused. Groups on a side chain read outwards from the residue. No end group written: not given here. *: point of attachment. C18 diacid = O=C(O)CCCCCCCCCCCCCCCCC(=O)*; γGlu = O=C(O)[C@H](CCC(=O)[*:2])N[*:1]; AEEA = NCCOCCOCC(=O)O

What was measured:
[1] = test system: BDNF; test: In vivo efficacy in wild-type mice, single SC dose: BDNF levels (western blotting); design: species or system mouse; conditions: single SC dose: LLP11 21 mg/kg, LLP12 26 mg/kg, CLP11 21 mg/kg; 4 and 8 hours
Description: 4 and 8 hour timepoints were chosen.
4-hour timepoint were chosen.

[2] = test system: Wistar Kyoto rats; test: Wistar Kyoto (WKY) rat model of depression: EEG/EMG sleep-wake recording; format: in vivo; conditions: single injection, 0-3 h post dosing
Description: Ketamine (10 mg/kg), a N-methyl-D-aspartate-receptor antagonist, was used as positive control. All rats received all treatments 2 h after light onset in a pseudo randomized crossover fashion with a minimum period of 3 days between treatments. The rats were placed individually in recording boxes, and sleep-wake behaviour was recorded for 24 h. EEG/EMG signals were amplified, analogue filtered (0.5-100 Hz), digitized (500 Hz), and then digitally filtered (EEG: 0.5-100 Hz and EMG: 70-100 Hz). EEG/EMG recordings were semi-automatically scored as wake, non-REM (NREM) sleep, or REM sleep in 10 s epochs using SleepSign. Sleep stages were defined as below: […]

Row | Compound | BDNF levels in vivo [1] | REM & NREM sleep [2] | time spent awake (wakefulness) [2]
1 | LLP12: Linear lipidated peptide K*EQEMTEPVEHEEDV-NH2, * = C18DA-γGlu-OEG-OEG- (K([AEEA-AEEA-γGlu-C18 diacid])EQEMTEPVEHEEDV-NH2; N-terminus assumed; SMILES CSCC[C@H](NC(=O)[C@H](CCC(=O)O)NC(=O)[C@H](CCC(N)=O)NC(=O)[C@H](CCC(=O)O)NC(=O)[C@@H](N)CCCCNC(=O)COCCOCCNC(=O)COCCOCCNC(=O)CC[C@H](NC(=O)CCCCCCCCCCCCCCCCC(=O)O)C(=O)O)C(=O)N[C@H](C(=O)N[C@@H](CCC(=O)O)C(=O)N1CCC[C@H]1C(=O)N[C@H](C(=O)N[C@@H](CCC(=O)O)C(=O)N[C@@H](Cc1c[nH]cn1)C(=O)N[C@@H](CCC(=O)O)C(=O)N[C@@H](CCC(=O)O)C(=O)N[C@@H](CC(=O)O)C(=O)N[C@H](C(N)=O)C(C)C)C(C)C)[C@@H](C)O) | increase BDNF in vivo |  | 
2 | CNC1(c2ccccc2Cl)CCCCC1=O (stereo not drawn) [ketamine] |  | at the expense of REM & NREM sleep | increased time spent awake
